Consider four molecules from patent US20230285387A1, “COMBINATION OF MORPHINAN COMPOUNDS AND ANTI[…] THE TREATMENT OF PS[…], NEUROLOGICAL DISEASES, I[…] CHRONIC PAIN AND BRAIN INJURY” (Concert Pharmaceuticals, Inc., priority 2008, published 2023).

The structures appear in SMILES notation. Where a name gives a salt, the structure may show the parent alone.

In one series the target is T1, CYP2D6 (Homo sapiens, UniProt P10635).
T1 construct: purchased GenTest (Woburn, Mass., USA)
Put plainly: Metabolic stability in CYP2D6 SUPERSOMES
The settings on record: human, recombinant human CYP2D6 SUPERSOMES; 1 μM test compound, 2 mM NADPH, 0.1 M potassium phosphate buffer pH 7.4, 37° C., 0-30 minutes, parent remaining by LC-MS/MS; read-out: t1/2 ± SD (calculated in vitro half-life in SUPERSOMES). It counts as in vitro ADME. The procedure:
(§1) Human CYP2D6 SUPERSOMES™ were purchased from GenTest (Woburn, Mass., USA). […] The 7.5 mM stock solutions were diluted to 50 μM in acetonitrile (ACN). The […] CYP2D6 supersomes were diluted to 62.5 μmol/mL in 0.1 M potassium phosphate buffer, pH 7.4, containing 3 mM MgCl2. The diluted SUPERSOMES™ were added to wells of a 96-well deep-well polypropylene plate in triplicate. 10 μL of the 50 μM test compound was added to the supersomes and the mixture was pre-warmed for 10 minutes. Reactions were initiated by addition of pre-warmed NADPH solution. The final reaction volume was 0.5 mL and contained 50 μmol/mL CYP2D6 SUPERSOMES™, 1 μM test compound, and 2 mM NADPH in 0.1 M potassium phosphate buffer, pH 7.4, and 3 mM MgCl2. The reaction mixtures were incubated at 37° C. and 50 μL aliquots were removed at 0, 5, 10, 20, and 30 minutes and added to shallow-well 96-well plates which contained 50 μL of ice-cold ACN with internal standard to stop the reactions. The plates were stored at 4° C. for 20 minutes after which 100 μL of water was added to the wells of the plate before centrifugation to pellet precipitated proteins. Supernatants were transferred to another 96-well plate and analyzed for amounts of parent remaining by LC-MS/MS using an Applied Bio-systems API 4000 mass spectrometer.
(§2) The in vitro half-life (t1/2) for each of the test compounds was calculated from the slopes of the linear regression of % parent remaining (ln) vs incubation time relationship: in vitro t1/2=0.693/k, where k=−[slope of linear regression of % parent remaining(ln) vs incubation time]. Data analysis was performed using Microsoft Excel Software.

The target of a further series is T2, Human CYP2D6 SUPERSOMES (Homo sapiens, UniProt P10635).
T2 construct: purchased GenTest (Woburn, Mass., USA)
In words: Metabolic stability in CYP2D6 SUPERSOMES
The format is in vitro ADME. Conditions: 1 μM test compound, 2 mM NADPH, 0.1 M potassium phosphate buffer pH 7.4, 37° C., 0-30 minutes, parent remaining by LC-MS/MS. The procedure:
as §1, §2

T1 sequence (P10635 whole entry): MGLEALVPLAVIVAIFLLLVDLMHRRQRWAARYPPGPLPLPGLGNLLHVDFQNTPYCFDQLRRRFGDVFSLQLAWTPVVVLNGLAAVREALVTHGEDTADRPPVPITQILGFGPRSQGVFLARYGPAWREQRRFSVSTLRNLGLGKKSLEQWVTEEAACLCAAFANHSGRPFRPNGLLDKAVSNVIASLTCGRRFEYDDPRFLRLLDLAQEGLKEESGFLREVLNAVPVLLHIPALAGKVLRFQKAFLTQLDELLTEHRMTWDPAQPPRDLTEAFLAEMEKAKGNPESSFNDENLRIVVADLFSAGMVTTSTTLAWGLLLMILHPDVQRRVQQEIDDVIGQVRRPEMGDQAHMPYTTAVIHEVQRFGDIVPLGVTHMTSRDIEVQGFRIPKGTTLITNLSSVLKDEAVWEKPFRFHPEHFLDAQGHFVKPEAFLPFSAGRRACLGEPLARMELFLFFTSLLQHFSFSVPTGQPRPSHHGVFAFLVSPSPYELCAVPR
T2 sequence (P10635 whole entry): as above

With `[2H]C([2H])([2H])C([2H])([2H])Oc1ccc2c(c1)[C@]13CCCC[C@@H]1C(C2)N(C)CC3` (single isomer, unassigned; (+)) [Compound 104, (+)-3-(Ethoxy-d5)-17-methyl-(9α,13α,14α)-morphinan hydrochloride], on CYP2D6, the half-life at 1 μM is 49.1 ± 4.1 min.

In the case of `[2H]C([2H])([2H])C([2H])(Oc1ccc2c(c1)[C@]13CCCC[C@@H]1C(C2)N(C)CC3)C([2H])([2H])[2H]` (single isomer, unassigned; (+)) [Compound 106, (+)-3-(Isopropoxy-d7)-17-methyl-(9α,13α,14α)-morphinan], on CYP2D6, the half-life at 1 μM was 36 ± 2.8 min.

Consider `[2H]C([2H])([2H])N1CC[C@@]23CCCC[C@@H]2[C@@H]1Cc1ccc(OC([2H])(C([2H])([2H])[2H])C([2H])([2H])[2H])cc13` [Compound 102, (+)-3-(Isopropoxy-d7)-17-(methyl-d3)-(9α,13α,14α)-morphinan], for which the “t1/2 ± SD (calculated in vitro half-life in SUPERSOMES)” value on Human CYP2D6 SUPERSOMES was 39.0 ± 1.9 min.

With `[2H]C([2H])([2H])Oc1ccc2c(c1)[C@]13CCCC[C@@H]1[C@H](C2)N(C([2H])([2H])[2H])CC3` [Test Compound, (+)-3-d3-methoxy-17-d3-methyl-(9α,13α,14α)-morphinan], at CYP2D6, the half-life at 1 μM was 5.6 ± 1.5 min.
